Source: patent publication US9150528B2, “Compound having detrusor muscle-contracting activity and urethral sphincter muscle-relaxing activity” (ONO PHARMACEUTICAL CO., LTD., priority 2009, dated 2015)

Columns and labels:
[1] = test system: urinary excretion dysfunction models; assay: Urinary excretion dysfunction models, maximal urinary flow rate; type: in vivo; details: 60 ng/kg/h continuous intravenous, cynomolgus monkey urinary excretion dysfunction model
Description: Urinary excretion dysfunction models were constructed in accordance with the following procedure. After anesthesia of cynomolgus monkeys, the region from the suprapubic area to the abdominal area was shaved, followed by fixing in a dorsal position. The shaved region was disinfected and the four legs were fixed. Using an electrosurgical knife, the skin region from the suprapubic area to the umbilical area and the peritoneal membrane were sequentially incised, followed by damage to the pelvic nerve and removal of the uterus. After the surgical operation, viccillin-containing physiological saline was added dropwise to the incised area. The peritoneal membrane and skin of the incised area were sutured with silk threads and disinfected. Viccillin was administered for 7 consecutive days after surgery. Meloxicam was administered once daily for 7 consecutive days to manage pain in the perioperative period.
The cynomolgus monkeys were seated on monkey chairs, followed by retention of the hands and legs with strings. Injectable water was administered orally, and physiological saline and the test compound (60 ng/kg/h) were continuously administered intravenously to allow urination freely. The maximal urinary flow rate was measured using a urine weighing sensor.

normal rats = assay: Blood pressures and heart rates in normal rats; type: in vivo, rat; details: 0.3 mg/kg, oral
Method: The blood pressures and heart rates of female Wistar rats were measured in accordance with the following procedure. On the day of measurement, indwelling of catheters for blood pressure•heart rate measurement was carried out under anesthesia with ether. The back of the neck of each rat was incised; a feeding catheter (Atom Medical Corporation) filled with heparinized physiological saline was introduced from the back of the neck; the catheter was inserted into the common carotid artery; and the surgical incision was closed. The measurements were carried out in a Bollmann cage under the conscious state, and the evaluations were carried out after confirming that the individual parameters were stabilized. After confirming the stabilization of blood pressure and heart rate, the test compound which was prepared using injectable water containing equimolar NaOH was orally administered at a dose of 5 mL/kg.
The catheter drawn from the back of the neck was connected to a pressure transducer (DX-200, NIHON KOHDEN CORP.), and the blood pressures and heart rates were measured using an amplifier for pressure measurement (Gould Instrument). The blood pressures and heart rates were recorded using a recorder (LINEARCORDERWR3320, GRAPHTEC). For each individual, rates of increase and decrease in average blood pressure and heart rate before administration and 30, 60, 120, and 180 min after administration were calculated with respect to the values of each individual before administration. Changes in blood pressure and heart rate before and after administration of the test compound were evaluated.

[2] = Systemic clearance after intravenous administration; type: in vivo; details: plasma, cynomolgus monkey, 0.001 mg/mL/kg
Method: Equimolar sodium hydroxide and injectable distilled water were added to each of the test compounds to prepare a 1 mg/mL aqueous solution. The aqueous solution was diluted with physiological saline until the concentration reached 0.001 mg/mL and was rapidly administered at a dose of 0.001 mg/mL/kg to cynomolgus monkey through the cephalic vein. Via heparinized syringes, 2 min, 5 min, 15 min, 30 min, 1 hr, 2 hr, 4 hr, 6 hr, 8 hr and 24 hr after administration, blood was drawn from the cephalic vein (non-administered sites). After centrifugation, blood plasma was sampled and stored at −80° C. before pretreatment. The blood plasma was pretreated by mixing with acetonitrile and centrifuging to remove proteins followed by measurement by LC/MS/MS. Changes of concentration in blood plasma was analyzed using WinNonlin4.0.1 to evaluate the systemic clearance of the test compound.

clearance [2]: 23.9 mL/min/kg
Structure (SMILES): C=CCC[C@](C)(O)C/C=C/[C@H]1CCC(=O)[C@@H]1CCSc1nc(C(=O)O)cs1 [Comparative compound D, 2-[(2-{(1R,2R)-2-[(1E,4S)-4-hydroxy-4-methyl-1,7-octadien-1-yl]-5-oxocyclopentyl}ethyl)thio]-1,3-thiazole-4-carboxylic acid]
improvement in maximal urinary flow rate over the vehicle group [1]: 36%
effect on the blood pressure (normal rats): tendency to decrease
increase in heart rate (normal rats): about 20%
